Measured values: ChEMBL document CHEMBL1146922, “A novel ketone derivative of artemisinin biotransformed by Streptomyces griseus ATCC 13273” (Bioorg Med Chem Lett, 2006)
In brackets after ≈: the same amount, converted by molar mass.

Test system: Plasmodium falciparum; call rule not given here
Assay: Antimicrobial activity against Plasmodium falciparum FCC1/HN
Type: functional, organism-based
[1] = Plasmodium falciparum, FCC1/HN, read-out: IC50

`C[C@@H]1[C@@H](O)C[C@H]2[C@@H](C)C(=O)O[C@@H]3O[C@]4(C)CC[C@@H]1C32OO4` was tested, and the IC50 [1] was 0.0293 µg/mL (≈ 0.0982 µM).
With `C[C@@H]1[C@H](O)C[C@H]2[C@@H](C)C(=O)O[C@@H]3O[C@]4(C)CC[C@@H]1C32OO4` the IC50 [1] was 0.0346 µg/mL (≈ 0.116 µM).
`C[C@@H]1C(=O)C[C@H]2[C@@H](C)C(=O)O[C@@H]3O[C@]4(C)CC[C@@H]1C32OO4` was tested, and the IC50 [1] was 0.0257 µg/mL (≈ 0.0867 µM).
In the case of `C[C@@H]1CC[C@H]2[C@@H](C)C(=O)O[C@@H]3O[C@@]4(C)OC32[C@H]1C[C@H]4O`, the IC50 is reported as “Not Active”.
`C[C@@H]1CC[C@H]2[C@@H](C)C(=O)O[C@@H]3O[C@@]4(C)CC[C@@H]1[C@]32OO4` [ARTEMISININ] showed an IC50 [1] of 0.0031 µg/mL (≈ 0.011 µM).
